Tests used:
cardiac α-actin promoter = experiment: Cardiac α-actin promoter-reporter (luciferase) activity in transfected cardiomyocytes exposed to agonists; format: cell-based, rat; conditions: for induction of cardiac α-actin promoter-reporter activity over control cells: PE 100 μM, TGF-β1 1 ng/ml
Experimental: (§1) FIG. 10 presents data showing the effects of adrenoceptor agonists on promoter-reporter activities for ANF, skeletal a-actin and cardiac a-actin, and a time course of effects of DOB on ANF message levels. FIGS. 10A, B, and C are bar graphs showing luciferase reporter levels after transfection of ANF, skeletal α-actin, and cardiac a-actin, respectively, into ventricular myocardial cells, and treatment, 24 hours after transfection, with PE (100 μM), DOB (10 μM), or TGF-β1 (1 ng/ml). Values are corrected for transfection efficiency and reported as the mean±SD from at least three experiments. FIG. 10D. Ventricular myocardial cells were switched to serum-free medium. DOB was added to the medium at various time points. “Control” represents cells treated with the DOB vehicle. 24 hours after incubation, total RNA was extracted and analyzed by Northern blot. Results are representative of n=3 or greater for each time point.
Transient transfection. It was necessary to culture the isolated cardiomyocytes in serum-free medium to eliminate effects on gene expression mediated through serum response elements. Primary myocardial cultures were first washed with serum-free growth medium and then maintained in serum-free Medium 199 supplemented with Nutridoma HU (Boehringer Mannheim Corporation, Indianapolis, Ind.) which contained human serum albumin, bovine insulin and human transferrin. Transfection were carried out by using a liposome-based transfecting agent, Lipofectamine (Life Technologies, Grand Island, N.Y.). The procedures used for transient transfection were followed as the manufacturer's instructions. The optimal values including DNA concentration, lipofectamine concentration, and time length for tansfection were determined prior to experiments carried out in this study. […]
(§2) For α1-adrenergic stimulation, 100 μM PE (Sigma, St. Louis, Mo.) was added to the cells. […] Chemiluminescent β-galactosidase activity was assayed by using an aliquot of the same cell lysates collected for the luciferase assay and measured in the same luminometer as described below. […]

[1] = system: neonatal rat cardiomyocytes; experiment: AngII- and PE-induced hypertrophy of primary cardiomyocytes (anti-α-actinin staining, cell size and sarcomeric assembly); format: cell-based; conditions: 72 hr; AngII 10 nM or PE 10 μM
Experimental: A-F, Primary rat cardiocytes in serum-free medium were stimulated with AngII (10 nM) or PE (10 μm) for 72 hours. Cells were then fixed and stained with anti-α-actinin antibody to reveal sarcomeres and Hoechst stain to reveal nuclei.
To visualize primary cardiomyocytes and their sarcomeric organization, anti-α-actinin mouse monoclonal antibody was used (Sigma). […] Cells were washed in 1×phosphate-buffered saline (PBS), fixed in 3.7% paraformaldehyde for 5 minutes, washed three times with 1×PBS and then pre-blocked in 1×PBS containing 2% horse serum, 2% BSA, and 0.1% non-ionic detergent NP40 for 30 minutes. Anti-α-actinin antibody was added at a dilution of 1:800 in fresh preblock solution and incubated for an additional 30 minutes. Subsequently, the cells were washed three times in 1×PBS with 0.1% NP40. Anti-mouse TRITC-conjugated secondary antibody was then added at a dilution of 1:400 for 30 minutes in pre-block solution and the cells were again washed three times in 1×PBS containing 0.1% NP40. Nuclear staining for DNA was performed with 0.5 μg/ml of bisbenzimide in PBS for 15 minutes followed by three rinses with PBS.

ANF promoter = experiment: ANF promoter-reporter (luciferase) activity in transfected cardiomyocytes exposed to agonists; format: cell-based, rat
Experimental: as §1
Transient transfection. It was necessary to culture the isolated cardiomyocytes in serum-free medium to eliminate effects on gene expression mediated through serum response elements. Primary myocardial cultures were first washed with serum-free growth medium and then maintained in serum-free Medium 199 supplemented with Nutridoma HU (Boehringer Mannheim Corporation, Indianapolis, Ind.) which contained human serum albumin, bovine insulin and human transferrin. Transfection were carried out by using a liposome-based transfecting agent, Lipofectamine (Life Technologies, Grand Island, N.Y.). The procedures used for transient transfection were followed as the manufacturer's instructions. The optimal values including DNA concentration, lipofectamine concentration, and time length for tansfection were determined prior to experiments carried out in this study. Briefly, for each transfection, 2 μg DNA and 20 μg lipofectamine were diluted into separate vials containing 300 μl serum-free nutridoma supplemented medium. The two solutions were then combined and incubated at room temperature for 15-45 minutes to allow DNA-liposome complexes to form. For each transfection, 2.4 ml of serum-free nutridoma supplemented medium were added to the tube containing the DNA-liposome complexes and the diluted mixture was overlaid onto the adherent cardiomyocytes that had been rinsed once with 2 ml of serum-free medium in a 60-mm tissue culture plate. The cell cultures were incubated at 37° C. in a C02 incubator containing 5% CO2 for 24 hours, at which time various test compounds were added. Promoter activities from cell extracts were assayed within 48 hours following the start of transfection.
For α1-adrenergic stimulation, 100 μM PE (Sigma, St. Louis, Mo.) was added to the cells. DOB (Gensia Laboratories, Ltd., Irving, Calif.), a selective β1-adrenergic agonist, was added at a concentration of 10 μM. To correct for variation in transfection efficiencies, pβGal-Control was used as an internal control. Chemiluminescent β-galactosidase activity was assayed by using an aliquot of the same cell lysates collected for the luciferase assay and measured in the same luminometer as described below.
Firefly luciferase assay. The firefly luciferase assay is based upon a commercial (Promega, Madison, Wis.) long term “glow” type of bioluminescence assay. Briefly, activation of luciferin results in the formation of an enzyme-bound luciferyl adenylate (luciferyl-AMP). […]

[2] = system: skeletal α-actin promoter; experiment: Skeletal α-actin promoter-reporter (luciferase) activity in transfected cardiomyocytes exposed to agonists; format: cell-based, rat
Experimental: as §1
Transient transfection. […] The optimal values including DNA concentration, lipofectamine concentration, and time length for tansfection were determined prior to experiments carried out in this study. […]
as §2

CaM kinase II = experiment: Autonomous CaM kinase II activity in neonatal rat heart tissue slices; format: biochemical; conditions: for CaMKII autonomous activation, increase over unstimulated heart tissues: 30 seconds after treatment, DOB 10 μM, ISO 100 μM
Experimental: FIG. 9 is a bar graph depicting stimulation of CaMKII activity by b1-adrenergic receptor in neonate rat heart tissue. Neonatal (1-4 day old) heart tissue slices were isolated and treated with isoproterenol (ISO, 100 μM), dolbutamine (DOB, 10 μM), or vehicle alone (control). Propanolol (PROP, 20 μM) was added 2 minutes before agonists were added. After 30 seconds of treatment, autonomous CaMKII activity was assayed. Data are shown as percentage of the ratio of calcium independent activity divided by total activity and represented as the mean±SD from at least three experiments.
Determination of autonomous CaM kinase II activity. CaM kinase II autonomous activity was determined in rat heart tissue homogenates using the synthetic peptide substrate, autocamtide-2 (KKALRRQETVDAL) (Mar et al. (1990) Mol. Cell. Biol. 10:4271-4283; and Farrance et al. (1992) J. Biol. Chem. 267:17234-17240) as exogenous substrate. […] Autonomous CaM kinase II activity was assayed by the phosphorylation of autocamtide-2 in the absence of Ca^2+/calmodulin and expressed as a proportion of activity obtained in the presence of these cofactors. Tissue slices were incubated in the presence or absence of various drug compounds for required time. At termination of the incubation the tissue slices were homogenized in ice-cold buffer (20 mM Tris-HCl, pH 7.5, 0.5 mM EGTA, 1.0 mM EDTA, 2.0 mM dithiothreitol, 10 mM sodium pyrophosphate, 0.4 mM ammonium molybdate, […]) by sonication. Supernatant were cleared by centrifugation (12,000×g, 2 minutes) and then assayed in a reaction mixture containing 50 mM PIPES (pH 7.0), 10 mM MgCl2 0.1 mg/ml bovine serum albumin, […], 20 mM [γ-^32P] […] Endogenous protein was sedimented by centrifugation and supernatants containing autocamtide-2 were spotted onto p81 phosphocellulose strips, washed 5 times, dried and ^32P-PO4 content was quantitated by Cerenkov radiation.
These experiments determined whether signaling through β1-adrenergic receptor subtype could activate cardiac CaMKII. […]

[3] = system: tetracycline-controlled transactivator (tTA); experiment: tTA-dependent luciferase target gene expression in primary rat cardiomyocytes; format: cell-based
Experimental: Cardiomyocytes were co-transfected with tTA expression plasmid pUHD15-1 and either a tTA-dependent luciferase construct pUHC13-3 or empty vector as control. 16 hours after transfection, cells were incubated in either medium without doxcycline (DOX) or medium with doxcycline. […] Open circles, empty vector, no DOX; filled circles, empty vector, plus DOX; open triangles, pUHC 13-3, no DOX; filled triangles, pUHC13-3, plus DOX. FIG. 11B is a bar graph depicting the ability of tTA to stimulate transcription of the target gene and the inhibitory effect of doxcycline 12 hours after transfection.
Tetracycline-controlled transactivator (tTA) expression plasmid pUHD15-1 encodes chimeric protein tTA under the control of the human cytomegalovirus (CMV) promoter and enhancer. tTA consists of amino acid residues 1-207 from the tetR protein and residues 363-490 from VP16 (Gossen and Bujard (1992) Proc. Natl. Acad. Sci. USA 89:5547-5551.
Plasmid pUHD10-3 contains a chimeric tet operon/CMV minimal promoter upstream of multiple cloning sites (Bujard, 1996). pUHC13-3 is a firefly luciferase reporter gene expression plasmid driven by the chimeric tet operon/CMV minimal promoter (Gossen and Bujard (1992).
The firefly luciferase gene as a reporter gene was under control of the chimeric tet operon/CMV minimal promoter in pUHC13-3. Transient transfections were carried out as described in Example 3. […]

ANF mRNA = experiment: ANF message level by Northern analysis in neonatal cardiocytes; format: cell-based, rat
Experimental: FIG. 10 presents data showing the effects of adrenoceptor agonists on promoter-reporter activities for ANF, skeletal a-actin and cardiac a-actin, and a time course of effects of DOB on ANF message levels. FIGS. 10A, B, and C are bar graphs showing luciferase reporter levels after transfection of ANF, skeletal α-actin, and cardiac a-actin, respectively, into ventricular myocardial cells, and treatment, 24 hours after transfection, with PE (100 μM), DOB (10 μM), or TGF-β1 (1 ng/ml). Values are corrected for transfection efficiency and reported as the mean±SD from at least three experiments. FIG. 10D. Ventricular myocardial cells were switched to serum-free medium. […] 24 hours after incubation, total RNA was extracted and analyzed by Northern blot. […]
Northern Analysis. […] After washing at high stringency (0.1×SSPE, 0.1% SDS, 65° C.), hybridized biotinylated cDNA were detected by using Chemiluminescent Detection System (TROPIX, Inc., Bedford, Mass.) and then exposed to X-ray film. The ANF bands were quantitated with a Howteck gel scanner (PDI, Huntington station, N.Y.) and normalized to the 28 S rRNA signal to correct for loading and/or transfer efficiencies.
Primary cultures of neonatal cardiocytes were kept in serum-free medium and β1 agonist, DOB, was applied to the cells at various times. ANF message RNA was evaluated in the end by northern analysis protocols as described above. […]

[4] = PE exposure, construct includes PERE motif
[5] = DOB 10 μM, added 24 hours after transfection

TGF-β1: type β-transforming growth factor
induction of cardiac α-actin promoter-reporter activity over control cells (cardiac α-actin promoter): 700%

CNC[C@H](O)c1cccc(O)c1 [PE, phenylephrine]
cardiomyocyte size and sarcomeric assembly after exposure to agonist [1]: dramatic increase in size and sarcomeric assembly | transactivation of ANF reporter activity over control cells (ANF promoter; PE 100 μM): 200% | activation of ANF50 (NP338) nested deletion promoter-reporter construct (ANF promoter; PE exposure, construct has lost PERE motif): not | activation of ANF135 (NP325) nested deletion promoter-reporter construct (ANF promoter; [4]): activated | activation of ANF700 (NP337) nested deletion promoter-reporter construct (ANF promoter; [4]): activated | transactivation of skeletal α-actin reporter activity over control cells ([2]; PE 100 μM): 200% | induction of cardiac α-actin promoter-reporter activity over control cells (cardiac α-actin promoter): not significantly stimulated

CC(C)NCC(O)c1ccc(O)c(O)c1 (stereo not drawn) [ISO, isoproterenol]
CaMKII autonomous activation, increase over unstimulated heart tissues (CaM kinase II): ~170%

C[C@H]1c2cccc(O)c2C(O)=C2C(=O)[C@]3(O)C(O)=C(C(N)=O)C(=O)[C@@H](N(C)C)[C@@H]3[C@@H](O)[C@@H]21 [doxcycline]
transactivation of the tTA-dependent target gene ([3]; 1 μg/ml after transfection, tTA-transfected cells): markedly repressed | low level expression of the target gene caused by the treatment itself ([3]; 1 μg/ml, 12 hour post-transfection): ~4 fold

CC(CCc1ccc(O)cc1)NCCc1ccc(O)c(O)c1 (stereo not drawn) [DOB, dobutamine]
CaMKII autonomous activation, increase over unstimulated heart tissues (CaM kinase II): ~170% | decrease of ANF promoter-reporter activity (ANF promoter; [5]): approximately 50% | decrease of skeletal α-actin promoter-reporter activity [2, 5]: approximately 50% | decrease of cardiac α-actin promoter-reporter activity (cardiac α-actin promoter; [5]): approximately 50% | decline of ANF mRNA compared to control values (ANF mRNA; 24 hours after DOB exposure): 75% | abundance of ANF message relative to control cultures (ANF mRNA; within 16 hours of DOB exposure, serum-free medium): about half

CC(C)NCC(O)COc1cccc2ccccc12 (stereo not drawn) [PROP, propanolol]
effect on DOB- or ISO-induced CaMKII autonomous activity (CaM kinase II; PROP 20 μM added prior to agonist): blocked activation

— patent publication US6673768B1, “Transgenic animal models for cardiac hypertrophy and methods of use thereof (treating)” (Board of Regents, The University of Texas System, priority 1997, dated 2004)
